Structures can show the parent of a compound that is named as a salt.
Target: T1, CRBN (Homo sapiens, UniProt Q96SW2)
T1 construct: expressed in transfected cells; host or cells: HEK293T
Assay: Competition Assay: MAPPIT-like, competition with trimethoprim-lenalidomide hybrid ligand for binding to CRBN in HEK293T cells
Type: cell-based
Conditions: protocol and reagents of Example 1; read-out: IC50 Competition
Excerpt: A bait protein (protein A) is expressed as a fusion protein in which it is genetically fused to an engineered intracellular receptor domain of the leptin receptor, which is itself fused to the extracellular domain of the erythropoietin (Epo) receptor. Binding of Epo ligand to the EpoR component results in activation of receptor-associated intracellular JAK2. However, activated JAK2 cannot activate the leptin receptor to trigger STAT3 binding and its phosphorylation because its tyrosine residues, normally phosphorylated by activated JAK2, have been mutated. Reconstitution of a JAK2 phosphorylatable STAT3 docking site is instead created through interaction of a protein B with protein A, whereby protein B is fused to a cytoplasmic domain of the gp130 receptor (which now harbors appropriate tyrosine resides recognized by the activated JAK2 kinase). Thus, physical interaction of protein A with protein B reconstitutes and Epo triggers JAK2-STAT3 signaling pathway activation. Activation of STAT3 can be monitored by introduction of a STAT3-responsive reporter gene, including a luciferase-encoding gene or a gene encoding a fluorescent marker such as GFP or some other type of fluorescent protein (EGF etc.). In this manner, the MAPPIT assay provides a versatile assay to assess such recombinant protein-protein interactions, or compound- or hybrid ligand-induced protein-protein interactions, in intact cells.
Formation of the complex results in activation of a STAT-responsive luciferase reporter gene. That signal is set to 100% luciferase activity. In a separate sample set up, cells are prepared in the same manner but, in addition, co-incubated with a test compound whose interaction with CRBN is investigated. […] Increasing concentrations of test compound are assessed to determine CRBN binding efficiency as determined in this type of ligand competition experiment in living cells. Specificity of signal inhibition is assessed by a parallel experimental set up in which test compound effect is assessed for inhibition of signal generated by a control gp130 fusion protein (CTRL) that directly binds to the DHFR-fusion protein in the absence of hybrid ligand (i.e. a direct interaction of the proteins).
In more detail, HEK293T cells are cultured in Dulbecco's modified Eagle's medium supplemented with 10% fetal calf serum, incubated at 37° C., 8% CO2. […] Data points represent the average luciferase activity of triplicate samples derived from cells treated with leptin+test compound for the REM2 control (CTRL) or cells treated with leptin+hybrid ligand+test compound (CRBN) relative to leptin (CTRL) or leptin+hybrid ligand (CRBN) only treated samples (the signals obtained in absence of added test compound for both cases is set at 100% of luciferase activity on y-axis). Error bars represent standard deviations. Curves are fit using 4-parameter nonlinear regression in […] PRISM software

| IC50 [nM] | SMILES |
| --- | --- |
| 16600 | Cn1ncc2c(Nc3ccc4c(c3)CN(C3CCC(=O)NC3=O)C4=O)ncnc21 (centres unmarked) [Compound C80374, 3-[5-[(1-methylpyrazolo[3,4-d]pyrimidin-4-yl)amino]-1-oxo-isoindolin-2-yl]piperidine-2,6-dione] |
| 2060 | Nc1nccc(Nc2ccc3c(c2)CN(C2CCC(=O)NC2=O)C3=O)n1 (centres unmarked) [Compound C80375, 3-[5-[(2-aminopyrimidin-4-yl)amino]-1-oxo-isoindolin-2-yl]piperidine-2,6-dione] |
| 971 | Nc1nc(Nc2ccc3c(c2)CN(C2CCC(=O)NC2=O)C3=O)nc2sccc12 (centres unmarked) [Compound C80379, 3-[5-[(4-aminothieno[2,3-d]pyrimidin-2-yl)amino]-1-oxo-isoindolin-2-yl]piperidine-2,6-dione] |
| 148 | Cn1ncc2c(Nc3ccc4c(c3)C(=O)N(C3CCC(=O)NC3=O)C4)ncnc21 (centres unmarked) [Compound C80383, 3-[6-[(1-methylpyrazolo[3,4-d]pyrimidin-4-yl)amino]-1-oxo-isoindolin-2-yl]piperidine-2,6-dione] |
| 179 | Cc1cc(Nc2ccc3c(c2)C(=O)N(C2CCC(=O)NC2=O)C3)ncn1 (centres unmarked) [Compound C80384, 3-[6-[(6-methylpyrimidin-4-yl)amino]-1-oxo-isoindolin-2-yl]piperidine-2,6-dione] |
| 67.4 | O=C1CCC(N2Cc3ccc(Nc4cnc5ccccc5n4)cc3C2=O)C(=O)N1 (centres unmarked) [Compound C80386, 3-[1-oxo-6-(quinoxalin-2-ylamino)isoindolin-2-yl]piperidine-2,6-dione] |
| 54.2 | Cn1ccnc(Nc2ccc3c(c2)C(=O)N(C2CCC(=O)NC2=O)C3)c1=O (centres unmarked) [Compound C80387, 3-[6-[(4-methyl-3-oxo-pyrazin-2-yl)amino]-1-oxo-isoindolin-2-yl]piperidine-2,6-dione] |
| 645 | N#Cc1ccc(Nc2ccc3c(c2)C(=O)N(C2CCC(=O)NC2=O)C3)nn1 (centres unmarked) [Compound C80389, 6-[[2-(2,6-dioxo-3-piperidyl)-3-oxo-isoindolin-5-yl]amino]pyridazine-3-carbonitrile] |
| 729 | Cc1cc2[nH]cnc(Nc3ccc4c(c3)C(=O)N(C3CCC(=O)NC3=O)C4)c-2n1 (centres unmarked) [Compound C80390, 3-[6-[(6-methylpyrrolo[3,2-d]pyrimidin-4-yl)amino]-1-oxo-isoindolin-2-yl]piperidine-2,6-dione] |
| 0.0205 | O=C1CCC(N2Cc3ccc(NC(=O)c4ccc5ccccc5n4)cc3C2=O)C(=O)N1 (centres unmarked) [Compound C80392, N-[2-(2,6-dioxo-3-piperidyl)-3-oxo-isoindolin-5-yl]quinoline-2-carboxamide] |
| 7 | O=C1CCC(N2Cc3ccc(NC(=O)c4ccc5cnccc5n4)cc3C2=O)C(=O)N1 (centres unmarked) [Compound C80393, N-[2-(2,6-dioxo-3-piperidyl)-3-oxo-isoindolin-5-yl]-1,6-naphthyridine-2-carboxamide] |
| 880 | O=C1CCC(N2Cc3ccc(NC(=O)C4=C5C=CN=C5N=CC4)cc3C2=O)C(=O)N1 (centres unmarked) [Compound C80395, N-[2-(2,6-dioxo-3-piperidyl)-3-oxo-isoindolin-5-yl]-5H-pyrrolo[2,3-6]pyridine-4-carboxamide] |
| 4010 | NC(=O)CNc1ccc2c(c1)C(=O)N(C1CCC(=O)NC1=O)C2 (centres unmarked) [Compound C84961, 2-[[2-(2,6-dioxo-3-piperidyl)-3-oxo-isoindolin-5-yl]amino]acetamide] |

Further lines, the compound ahead of its results:

| SMILES | IC50 [nM] |
| --- | --- |
| Nc1cccc2c(=O)n(C3CCC(=O)NC3=O)nnc12 (centres unmarked) [Compound C35833, 3-(8-amino-4-oxo-1,2,3-benzotriazin-3-yl)piperidine-2,6-dione] | 684 |
| O=C1CCc2cc(C(=O)N3CCc4cccnc43)cnc2N1 [Compound C36128, 6-(2,3-dihydropyrrolo[2,3-b]pyridine-1-carbonyl)-3,4-dihydro-1H-1,8-naphthyridin-2-obe] | 20300 |
| NC(=O)c1ccc2c(c1)C(=O)N(C1CCC(=O)NC1=O)C2 (centres unmarked) [Compound C39772, 2-(2,6-dioxo-3-piperidyl)-3-oxo-isoindoline-5-carboxamide] | 13800 |
| O=C1CCC(Nc2cnc3ccccc3n2)C(=O)N1 (centres unmarked) [Compound C44292, 3-(quinoxalin-2-ylamino)piperidine-2,6-dione] | 8320 |
| O=C1CCC(N2Cc3ccc(C(F)(F)F)cc3C2=O)C(=O)N1 (centres unmarked) [Compound C45748, 3-[1-oxo-6-(trifluoromethyl)isoindolin-2-yl]piperidine-2,6-dione] | 953 |
| Nc1cccc2c1CCN(C1CCC(=O)NC1=O)C2=O (centres unmarked) [Compound C47933, 3-(5-amino-1-oxo-3,4-dihydroisoquinolin-2-yl)piperidine-2,6-dione] | 1090 |
| O=C(O)CNc1ccc2c(c1)C(=O)N(C1CCC(=O)NC1=O)C2 (centres unmarked) [Compound C47997, 2-[[2-(2,6-dioxo-3-piperidyl)-3-oxo-isoindolin-5-yl]amino]acetic acid] | 9100 |
| N#Cc1cccc2c1C(=O)N(C1CCC(=O)NC1=O)C2 (centres unmarked) [Compound C48009, 2-(2,6-dioxo-3-piperidyl)-3-oxo-isoindoline-4-carbonitrile] | 2180 |
| O=C1CCC(N2Cc3cccc(-c4ccccc4)c3C2=O)C(=O)N1 (centres unmarked) [Compound C48020, 3-(1-oxo-7-phenyl-isoindolin-2-yl)piperidine-2,6-dione] | 546 |
| O=C1N=CC(N2C(=O)c3ccccc3C2=O)C(=O)N1 (centres unmarked) [Compound C49278, 2-(2,6-dioxo-5H-pyrimidin-5-yl)isoindoline-1,3-dione] | 45400 |
| CN(C)CC(=O)Nc1ccc2c(c1)C(=O)N(C1CCC(=O)NC1=O)C2 (centres unmarked) [Compound C49708, 2-(dimethylamino)-N-[2-(2,6-dioxo-3-piperidyl)-3-oxo-isoindolin-5-yl]acetamide] | 752 |
| O=C1CCC(N2C(=O)c3ccccc3C2C2=c3ccccc3=NC2)C(=O)N1 (centres unmarked) [Compound C49713, 3-[1-(2H-indol-3-yl)-3-oxo-isoindolin-2-yl]piperidine-2,6-dione] | 6740 |
| O=C1CCC(Nc2ncccn2)C(=O)N1 (centres unmarked) [Compound C55468, 3-(pyrimidin-2-ylamino)piperidine-2,6-dione] | 8680 |
| COC1c2ccccc2C(=O)N1C1CCC(=O)NC1=O (centres unmarked) [Compound C56572, 3-(1-methoxy-3-oxo-isoindolin-2-yl)piperidine-2,6-dione] | 8610 |
| O=C1CCC(N2C(=O)C=C(c3ccccc3)C2=O)C(=O)N1 (centres unmarked) [Compound C64319, 3-(2,5-dioxo-3-phenyl-pyrrol-1-yl)piperidine-2,6-dione] | 42900 |
| O=C1CCC(N2C(=O)CC3(Cc4ccccc4C3)C2=O)C(=O)N1 (centres unmarked) [Compound C64329, 1′-(2,6-dioxo-3-piperidyl)spiro[indane-2,3′-pyrrolidine]-2′,5′-dione] | 15100 |
| O=C1CCC(N2C(=O)CC3(CCOCC3)C2=O)C(=O)N1 (centres unmarked) [Compound C64348, 2-(2,6-dioxo-3-piperidyl)-8-oxa-2-azaspiro[4.5]decane-1,3-dione] | 12900 |
| Cc1nc(N(C)C)cc2c1C(=O)N(C1CCC(=O)NC1=O)C2=O (centres unmarked) [Compound C64376, 6-(dimethylamino)-2-(2,6-dioxo-3-piperidyl)-4-methyl-pyrrolo[3,4-c]pyridine-1,3-dione] | 3950 |
| NCc1ccc2c(c1)C(=O)N(C1CCC(=O)NC1=O)C2 (centres unmarked) [Compound C66979, 3-[6-(aminomethyl)-1-oxo-isoindolin-2-yl]piperidine-2,6-dione] | 633 |
| O=C1CC/C(=C/c2ccccc2)C(=O)N1 [Compound C68121, (3Z)-3-benzylidenepiperidine-2,6-dione] | 6500 |
| Cc1cccc2c1C(=O)N(C1CCC(=O)NC1=O)S2(=O)=O (centres unmarked) [Compound C73349, 3-(4-methyl-1,1,3-trioxo-1,2-benzothiazol-2-yl)piperidine-2,6-dione] | 4950 |
| COc1ccc(Br)c2c1C(=O)N(C1CCC(=O)NC1=O)C2 (centres unmarked) [Compound C74668, 3-(4-bromo-7-methoxy-1-oxo-isoindolin-2-yl)piperidine-2,6-dione] | 1.89 |
| Cc1cccc2c1S(=O)(=O)N(C1CCC(=O)NC1=O)C2=O (centres unmarked) [Compound C75688, 3-(7-methyl-1,1,3-trioxo-1,2-benzothiazol-2-yl)piperidine-2,6-dione] | 14700 |
| NC1Cc2ccccc2C1=O (centres unmarked) [Compound C75987, 2-aminoindan-1-one; hydrochloride] | 11200 |
| O=C1CCC(N2Cc3cc(Nc4ncnc5sccc45)ccc3C2=O)C(=O)N1 (centres unmarked) [Compound C80370, 3-[1-oxo-5-(thieno[2,3-d]pyrimidin-4-ylamino)isoindolin-2-yl]piperidine-2,6-dione] | 10.9 |
